Test results taken from US20210198277A1, “AMINE-SUBSTITUTED ARYL OR HETEROARYL COMPOUNDS” (Epizyme, Inc., priority 2016, published 2021).

What was measured:
human EHMT2 913-1193 = molecular target: T1, human EHMT2 913-1193 (Homo sapiens, UniProt Q96KQ7); experiment: EHMT2 enzyme assay on histone peptide substrate (EHMT2 PEP); format: biochemical; conditions: Table VI; read-out: EHMT2 PEP IC50
T1 construct: recombinant purified human EHMT2 913-1193, Viva; purchased Viva
T1 sequence (Q96KQ7 913-1193): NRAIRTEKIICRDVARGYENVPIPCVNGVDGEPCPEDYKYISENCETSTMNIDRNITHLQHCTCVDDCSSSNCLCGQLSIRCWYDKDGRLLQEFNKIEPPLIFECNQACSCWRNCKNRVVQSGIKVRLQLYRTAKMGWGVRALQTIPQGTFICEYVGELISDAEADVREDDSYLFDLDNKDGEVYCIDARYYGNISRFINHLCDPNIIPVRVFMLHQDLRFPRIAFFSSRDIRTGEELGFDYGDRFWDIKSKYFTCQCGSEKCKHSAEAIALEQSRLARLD
Summary of the method: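 Compounds were tested as 3-fold dilutions, 10 points from a 50 μM final top (2% DMSO), after 30-min preincubation with 0.031 nM enzyme in Bicine buffer pH 7.5. Transfer of ^3H-methyl from ^3H-SAM to biotinylated histone peptide ran 60 min at room temperature and was detected by streptavidin Flashplate scintillation.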

EHMT1 = molecular target: T2, EHMT1 (Homo sapiens, UniProt Q9H9B1); experiment: EHMT1 enzyme assay on peptide substrate (EHMT1 PEP); format: biochemical; conditions: Table VI; read-out: EHMT1 PEP IC50
T2 sequence (Q9H9B1 1-1298): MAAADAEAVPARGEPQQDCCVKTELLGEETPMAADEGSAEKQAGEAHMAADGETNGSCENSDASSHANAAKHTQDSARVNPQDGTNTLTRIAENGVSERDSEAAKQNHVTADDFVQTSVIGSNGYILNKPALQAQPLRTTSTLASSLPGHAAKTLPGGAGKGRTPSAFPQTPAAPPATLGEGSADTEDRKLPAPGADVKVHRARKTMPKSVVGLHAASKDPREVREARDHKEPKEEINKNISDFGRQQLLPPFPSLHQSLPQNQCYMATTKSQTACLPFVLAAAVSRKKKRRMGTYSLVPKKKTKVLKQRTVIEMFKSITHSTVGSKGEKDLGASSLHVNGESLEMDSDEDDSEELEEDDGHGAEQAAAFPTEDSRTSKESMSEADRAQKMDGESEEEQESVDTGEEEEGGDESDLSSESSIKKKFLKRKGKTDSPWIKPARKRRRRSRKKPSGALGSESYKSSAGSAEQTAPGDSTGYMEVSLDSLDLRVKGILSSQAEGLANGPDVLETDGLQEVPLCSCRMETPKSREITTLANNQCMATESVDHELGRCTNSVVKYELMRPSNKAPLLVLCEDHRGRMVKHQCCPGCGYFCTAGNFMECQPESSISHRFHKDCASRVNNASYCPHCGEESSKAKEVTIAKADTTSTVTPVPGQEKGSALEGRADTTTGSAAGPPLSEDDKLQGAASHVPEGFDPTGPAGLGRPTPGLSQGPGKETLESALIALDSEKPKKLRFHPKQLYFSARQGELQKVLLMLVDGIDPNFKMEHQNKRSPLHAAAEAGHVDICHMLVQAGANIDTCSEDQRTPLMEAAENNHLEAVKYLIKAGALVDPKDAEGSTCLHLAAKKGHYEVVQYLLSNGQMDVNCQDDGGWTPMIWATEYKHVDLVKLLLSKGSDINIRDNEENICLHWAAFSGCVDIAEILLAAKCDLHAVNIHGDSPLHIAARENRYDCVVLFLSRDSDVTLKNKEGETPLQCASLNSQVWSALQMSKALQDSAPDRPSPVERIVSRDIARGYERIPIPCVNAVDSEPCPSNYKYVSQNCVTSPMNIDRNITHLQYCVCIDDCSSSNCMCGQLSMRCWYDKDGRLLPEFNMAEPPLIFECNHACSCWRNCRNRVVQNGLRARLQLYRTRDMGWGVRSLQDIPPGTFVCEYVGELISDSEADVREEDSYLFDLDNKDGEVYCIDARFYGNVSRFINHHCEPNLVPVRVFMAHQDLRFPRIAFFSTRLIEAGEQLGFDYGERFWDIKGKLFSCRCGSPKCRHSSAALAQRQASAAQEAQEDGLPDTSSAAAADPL

SMILES | IC50 (human EHMT2 913-1193) | IC50 (EHMT1)
COc1cnc(Nc2cccc3[nH]nnc23)cc1OCCCN1CCCC1 [Compound 619] | > 10000 nM | > 10000 nM
CNc1cc(C)nc(Nc2cc(OCCCN3CCCC3)c3ncnn3c2)n1 [Compound 623] | 1000 to 10000 nM | 1000 to 10000 nM
CCNc1cc(C2CCOCC2)c2cc(OC)c(OCCCN3CCCC3)cc2n1 [Compound 865] | < 100 nM | < 100 nM
CNc1cc(C2CCN([C@@H]3CCOC3)CC2)c2cc(OC)c(OCCCN3CCCC3)cc2n1 [Compound 866] | < 100 nM | < 100 nM
COc1ccc(Nc2nc(C)cc(C3CCOCC3)n2)cc1OCCCN1CCCC1 [Compound 870] | > 10000 nM | > 10000 nM
CNc1cc(C)nc(Nc2ccc(CNC(=O)c3ccccc3)c(OC)c2)n1 [Compound 876] | > 10000 nM | > 10000 nM
CNc1cc(C)nc(Nc2ccc(C(=O)NCc3ccccc3)c(OC)c2)n1 [Compound 877] | > 10000 nM | > 10000 nM
COc1ncc(Nc2nc(C)cc(NCC3COC3)n2)cc1OC[C@H](O)CN1CCCC1 [Compound 884] | > 10000 nM | > 10000 nM
CNc1cc(C)nc(Nc2cc(OC[C@@H](O)CN3CCCC3)c(OC)cn2)n1 [Compound 885] | 1000 to 10000 nM | 1000 to 10000 nM
CNS(=O)(=O)CCNc1cc(C)nc(Nc2ccc(OC)c(OCCCN3CCCC3)c2)n1 [Compound 892] | < 100 nM | < 100 nM
COc1ccc(Nc2nc(C)cc(NCCS(=O)(=O)N(C)C)n2)cc1OCCCN1CCCC1 [Compound 893] | 100 to 1000 nM | < 100 nM
COc1cc2cc(C#N)c(C)nc2cc1OCCCN1CCCC1 [Compound 895] | > 10000 nM | > 10000 nM
COc1cc2cc(F)c(C)nc2cc1OCCCN1CCCC1 [Compound 896] | > 10000 nM | > 10000 nM
CNc1cc(C2CCOCC2)c2cc(OC)c(OCCCN3CC(O)C3)cc2n1 [Compound 902] | < 100 nM | < 100 nM
CNc1nc2cc(OCCCN3CCCC3)c(OC)cc2cc1Cl [Compound 903] | 1000 to 10000 nM | 100 to 1000 nM
CNc1cc(C)nc(Nc2ccc(OC)c(C#CCN3CCOCC3)c2)n1 [Compound 904] | > 10000 nM | 1000 to 10000 nM
CNc1ccnc(Nc2ccc(OC)c(OC[C@@H](O)CN3CCC3)c2)n1 [Compound 907] | 1000 to 10000 nM | 100 to 1000 nM
CNCCCOc1cc(Nc2nccc(NC)n2)ccc1OC [Compound 916] | 100 to 1000 nM | < 100 nM
CNCCCOc1cc(Nc2nccc(NC)n2)cnc1OC [Compound 917] | 1000 to 10000 nM | 100 to 1000 nM
CNC[C@@H](O)COc1cc(Nc2nccc(NC)n2)cnc1OC [Compound 918] | 1000 to 10000 nM | 100 to 1000 nM
CNC[C@H](COc1cc(Nc2nccc(NC)n2)ccc1OC)OC [Compound 921] | > 10000 nM | > 10000 nM

Results, then the compound that gave them:

IC50 (human EHMT2 913-1193) | IC50 (EHMT1) | SMILES
< 100 nM | < 100 nM | CNc1cc(C)nc(Nc2ccc(OC)c(OCC(O)CN3CCCC3)c2)n1 (stereo in doubt) [Compound 906, (2S)-1-(2-methoxy-5-[[4-methyl-6-(methylamino)pyrimidin-2-yl]amino]phenoxy)-3-(pyrrolidin-1-yl)propan-2-ol]
> 10000 nM | > 10000 nM | CCN1CC(COc2cc(Nc3cccn4cnnc34)ncc2OC)C1 [Compound 620]
> 10000 nM | 1000 to 10000 nM | CNc1cc(C)nc(Nc2c[nH]c(=O)c(OCCCN3CCCC3)c2)n1 [Compound 621]
1000 to 10000 nM | 1000 to 10000 nM | CNc1cc(C)nc(Nc2cc(OCCCN3CCCC3)c3nncn3c2)n1 [Compound 622]
100 to 1000 nM | < 100 nM | CNc1cc(C)nc(Nc2cc(OCCCN3CCCC3)c3[nH]nnc3c2)n1 [Compound 624]
< 100 nM | < 100 nM | COc1cc2c(C3CCN(C)CC3)cc(N3CCCC3)nc2cc1OCCCN1CCCC1 [Compound 625]
< 100 nM | < 100 nM | COc1cc2c(C3CCN([C@H]4CCOC4)CC3)cc(C)nc2cc1OCCCN1CCCC1 [Compound 864]
< 100 nM | < 100 nM | CNc1cc(C2CCN([C@H]3CCOC3)CC2)c2cc(OC)c(OCCCN3CCCC3)cc2n1 [Compound 867]
> 10000 nM | > 10000 nM | CNc1cc(C)nc(Nc2ccc(OC)c(C(=O)NCc3ccccc3)c2)n1 [Compound 871]
> 10000 nM | > 10000 nM | CNc1cc(C)nc(Nc2ccc(OC)c(C(=O)NC3CCN(C)CC3)c2)n1 [Compound 873]
100 to 1000 nM | 100 to 1000 nM | CNc1cc(C)nc(Nc2cnc(OC)c(OC[C@@H](O)CN3CCCC3)c2)n1 [Compound 881]
100 to 1000 nM | 100 to 1000 nM | CNc1cc(C)nc(Nc2cnc(OC)c(OC[C@H](O)CN3CCCC3)c2)n1 [Compound 882]
> 10000 nM | > 10000 nM | COc1ncc(Nc2nc(C)cc(NCC3COC3)n2)cc1OC[C@@H](O)CN1CCCC1 [Compound 883]
1000 to 10000 nM | 1000 to 10000 nM | CNc1cc(C)nc(Nc2cc(OC[C@H](O)CN3CCCC3)c(OC)cn2)n1 [Compound 886]
100 to 1000 nM | 100 to 1000 nM | CNC(=O)CCNc1cc(C)nc(Nc2cnc(OC)c(OCCCN3CCCC3)c2)n1 [Compound 887]
100 to 1000 nM | 100 to 1000 nM | CNC(=O)N1CC(CNc2cc(C)nc(Nc3cnc(OC)c(OCCCN4CCCC4)c3)n2)C1 [Compound 888]

IC50 (human EHMT2 913-1193) | IC50 (EHMT1) | SMILES
> 10000 nM | > 10000 nM | CNc1cc(C)nc(Nc2ccc(OC)c(OCCCc3nc(Cl)c[nH]3)c2)n1 [Compound 890]
> 10000 nM | > 10000 nM | CNc1cc(C)nc(Nc2ccc(OC)c(OCCCc3nc(Cl)cn3C)c2)n1 [Compound 891]
100 to 1000 nM | 100 to 1000 nM | COc1cnc(Nc2cc(NCC3COC3)cnn2)cc1OCCCN1CCCC1 [Compound 894]
> 10000 nM | 1000 to 10000 nM | CNc1nc2cc(OCCCN3CCCC3)c(OC)cc2cc1F [Compound 897]
> 10000 nM | > 10000 nM | CNC(=O)C1CCN(c2cc3nc(NC)cc(C)c3cc2OC)C1 (centres unmarked) [Compound 900]
100 to 1000 nM | 100 to 1000 nM | CNc1cc(C)nc(Nc2ccc(OC)c(OC[C@@H](O)CN3CCCC3)c2)n1 [Compound 905]
< 100 nM | < 100 nM | CNc1ccnc(Nc2ccc(OC)c(OC[C@H](O)CN3CCC3)c2)n1 [Compound 908]
100 to 1000 nM | < 100 nM | CNc1ccnc(Nc2cnc(OC)c(OC[C@@H]3CCN(C)C3)c2)n1 [Compound 912]
100 to 1000 nM | < 100 nM | CNc1ccnc(Nc2cnc(OC)c(OCCCN3CCC3)c2)n1 [Compound 914]
1000 to 10000 nM | 1000 to 10000 nM | CNc1ccnc(Nc2ccc(OC)c(OC[C@@H](CN3CCCC3)OC)c2)n1 [Compound 919]
100 to 1000 nM | 100 to 1000 nM | CNc1ccnc(Nc2ccc(OC)c(OC[C@H](CN3CCCC3)OC)c2)n1 [Compound 920]
1000 to 10000 nM | 1000 to 10000 nM | CNC[C@@H](COc1cc(Nc2nccc(NC)n2)ccc1OC)OC [Compound 922]
100 to 1000 nM | < 100 nM | CCN1CC[C@@H](COc2cc(Nc3nccc(NC)n3)ccc2OC)C1 [Compound 927]
100 to 1000 nM | < 100 nM | CNc1ccnc(Nc2ccc(OC)c(OC[C@@H]3CCN(C4CC4)C3)c2)n1 [Compound 928]
> 10000 nM | > 10000 nM | CNc1ccnc(Nc2ccc(OC)c(OC[C@H]3CN(C)CCO3)c2)n1 [Compound 931]
